US6908919B2, “Substituted polycyclic aryl and heteroaryl pyrazinones useful for selective inhibition of the coagulation cascade” (Pharmacia Corporation, priority 1999, dated 2005)
Read-outs that look alike come from different tables or passages of the source.

How the values were obtained:
[1] = biological target: T1, recombinant soluble tissue factor and recombinant human factor VIIa (TF-VIIa) (Homo sapiens, UniProt P08709); assay: TF-VIIa Assay; type: biochemical
T1 construct: conversion of coagulation factor VII to VIIa by Xa; purchased American Diagnostica, Greenwich Conn; host or cells: VIIa purchased; soluble TF made in house in E. coli

Human factor Xa = Human factor Xa (Homo sapiens, UniProt P00742); assay: Xa Assay; type: biochemical; design: purchased Enzyme Research Laboratories, South Bend Ind
Human factor Xa, sequence (P00742 41-179 limits assumed): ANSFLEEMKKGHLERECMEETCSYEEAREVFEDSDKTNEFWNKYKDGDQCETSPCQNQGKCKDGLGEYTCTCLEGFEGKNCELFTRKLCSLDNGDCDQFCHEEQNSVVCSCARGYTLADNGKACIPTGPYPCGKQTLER
Human factor Xa, sequence (P00742 235-488 limits assumed): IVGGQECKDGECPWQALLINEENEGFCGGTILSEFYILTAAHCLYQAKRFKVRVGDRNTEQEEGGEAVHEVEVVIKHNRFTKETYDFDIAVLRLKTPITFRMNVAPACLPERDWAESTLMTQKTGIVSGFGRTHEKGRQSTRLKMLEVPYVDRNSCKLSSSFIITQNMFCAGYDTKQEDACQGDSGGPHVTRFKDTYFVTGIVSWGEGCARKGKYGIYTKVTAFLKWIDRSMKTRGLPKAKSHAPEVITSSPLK

T1 sequence (P08709 61-212 limits assumed): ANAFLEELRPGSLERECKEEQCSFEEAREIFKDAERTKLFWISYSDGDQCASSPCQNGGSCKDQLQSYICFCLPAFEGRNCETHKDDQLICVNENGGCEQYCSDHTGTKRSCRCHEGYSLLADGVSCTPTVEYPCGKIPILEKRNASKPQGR
T1 sequence (P08709 213-466 limits assumed): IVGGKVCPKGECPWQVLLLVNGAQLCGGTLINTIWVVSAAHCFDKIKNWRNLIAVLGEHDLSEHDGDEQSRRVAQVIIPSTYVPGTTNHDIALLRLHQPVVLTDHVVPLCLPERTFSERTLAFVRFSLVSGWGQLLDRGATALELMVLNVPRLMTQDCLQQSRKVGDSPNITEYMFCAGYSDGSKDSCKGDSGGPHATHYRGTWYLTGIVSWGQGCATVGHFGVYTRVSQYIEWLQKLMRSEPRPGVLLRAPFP
T1 sequence (P13726 33-251 partner limits assumed): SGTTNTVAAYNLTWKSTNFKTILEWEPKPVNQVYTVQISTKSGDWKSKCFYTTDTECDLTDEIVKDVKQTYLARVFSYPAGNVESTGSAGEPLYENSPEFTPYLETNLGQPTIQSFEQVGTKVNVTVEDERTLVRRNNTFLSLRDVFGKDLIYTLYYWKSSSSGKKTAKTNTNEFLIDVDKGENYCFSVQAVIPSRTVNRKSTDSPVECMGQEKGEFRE

SMILES | % Inhibition TF-VIIa (100 µM) ([1]; inhibitor at 100 µM) [%] | % Inhibition Factor Xa (100 µM) (Human factor Xa; inhibitor at 100 µM) [%] | other results
O=C(Cn1c(-c2ccc(Cl)cc2)c(Cl)nc(NCc2ccccc2)c1=O)NCCc1ccncc1 [Example E-0025] | 0 | 0 | –
N=C(N)c1ccc(C(O)CCCn2c(-c3cccc(N)c3)c(Cl)nc(NC3CCC3)c2=O)cc1 (centres unmarked) [Example 143] | – | – | IC50 ([1]; read-out: IC50 TF-VIIa): 43.2 µM; inhibition at 100 µM (Human factor Xa; at 100 μM inhibitor): 30%
O=C(Cn1c(CCc2ccccc2)c(Cl)nc(NCCc2ccc(Cl)cc2)c1=O)NCCc1ccncc1 [Example E-0068] | 0 | 0 | –
N=C(N)c1ccc(CNC(=O)Cn2c(-c3ccccc3)c(Cl)nc(NCC(F)(F)F)c2=O)cc1 [1507-41] | – | – | % Inhibition TF-VIIa (30 µM) ([1]; at 30 µM inhibitor): 48%; % Inhibition Factor Xa (30 µM) (Human factor Xa; at 30 µM inhibitor): 17%
N=C(N)c1ccc(CNC(=O)Cn2c(-c3ccccc3)c(Cl)nc(NCc3c(F)cccc3C(F)(F)F)c2=O)cc1 [1512-44] | – | – | % Inhibition TF-VIIa (30 µM) ([1]; at 30 µM inhibitor): 43%; % Inhibition Factor Xa (30 µM) (Human factor Xa; at 30 µM inhibitor): 6%
Cc1cccc(Cl)c1CNc1nc(Cl)c(-c2ccccc2)n(CC(=O)NCc2ccc(C(=N)N)cc2)c1=O [1512-31] | – | – | % Inhibition TF-VIIa (30 µM) ([1]; at 30 µM inhibitor): 43%; % Inhibition Factor Xa (30 µM) (Human factor Xa; at 30 µM inhibitor): 14%
O=C(Cn1c(Cc2ccccc2)c(Cl)nc(NCCc2ccc(Cl)cc2)c1=O)NCCc1ccncc1 [Example E-0060] | 0 | 0 | –
O=C(Cn1c(-c2ccccc2)c(Cl)nc(NCCc2cccnc2)c1=O)NCCc1ccncc1 [Example E-0013] | 0 | 0 | –
N=C(N)c1ccc(CNC(=O)Cn2c(-c3ccc(-c4ccccc4)cc3)c(Cl)nc(NCc3ccncc3)c2=O)cc1 [1471-67] | – | – | % Inhibition TF-VIIa (30 µM) ([1]; at 30 µM inhibitor): 12%; % Inhibition Factor Xa (30 µM) (Human factor Xa; at 30 µM inhibitor): 16%
COc1ccc(-c2c(Cl)nc(NCCc3ccc(Cl)cc3)c(=O)n2CC(=O)NCCc2ccncc2)cc1 [Example E-0106] | 5 | 3 | –
O=C(Cn1c(-c2ccc(Cl)cc2)c(Cl)nc(NCc2ccncc2)c1=O)NCCc1ccncc1 [Example E-0032] | 0 | 0 | –
N=C(N)c1ccc(CNC(=O)Cn2c(-c3ccc(-c4ccccc4)cc3)c(Cl)nc(NCCc3cccnc3)c2=O)cc1 [1471-72] | – | – | % Inhibition TF-VIIa (30 µM) ([1]; at 30 µM inhibitor): 15%; % Inhibition Factor Xa (30 µM) (Human factor Xa; at 30 µM inhibitor): 22%
NC1=NCCSc2cc(CNC(=O)Cn3c(-c4cccc(N)c4)c(Cl)nc(NC4CCC4)c3=O)ccc21 [Example 154] | – | – | inhibition at 30 µM ([1]; 1 h, at 30 µM inhibitor): 7%; % Inhibition Factor Xa (30 µM) (Human factor Xa; at 30 µM inhibitor): 6%
O=C(Cn1c(-c2ccccc2)c(Cl)nc(NCCc2ccncc2)c1=O)NCCc1ccncc1 [Example E-0014] | 0 | 0 | –
O=C(Cn1c(-c2ccc(Cl)cc2)c(Cl)nc(NCc2ccccc2)c1=O)NCCc1ccncc1 [Example E-0017] | 0 | 0 | –
COc1ccc(-c2c(Cl)nc(NCCc3ccncc3)c(=O)n2CC(=O)NCc2ccc(C(=N)N)cc2)cc1 [1471-37] | – | – | % Inhibition TF-VIIa (30 µM) ([1]; at 30 µM inhibitor): 39%; % Inhibition Factor Xa (30 µM) (Human factor Xa; at 30 µM inhibitor): 7%
CC(C)Nc1nc(Cl)c(-c2cccc([N+](=O)[O-])c2)n(CC(=O)NCc2ccc(C(N)=NO)cc2)c1=O [Example 61] | – | – | % Inhibition TF-VIIa (30 µM) ([1]; at 30 µM inhibitor): 1%; % Inhibition Factor Xa (30 µM) (Human factor Xa; at 30 µM inhibitor): 0%
Cc1c(Cl)nc(NCCN2CCOCC2)c(=O)n1CC(=O)NCCc1ccncc1 [Example E-0007] | 0 | 0 | –
O=C(Cn1c(Cc2ccccc2)c(Cl)nc(NCCc2cccc(Cl)c2)c1=O)NCCc1ccncc1 [Example E-0059] | 0 | 0 | –
COc1ccc(-c2c(Cl)nc(NCc3ccncc3)c(=O)n2CC(=O)NCc2ccc(C(=N)N)cc2)cc1 [1471-35] | – | – | % Inhibition TF-VIIa (30 µM) ([1]; at 30 µM inhibitor): 37%; % Inhibition Factor Xa (30 µM) (Human factor Xa; at 30 µM inhibitor): 22%
COc1ccc(-c2c(Cl)nc(NCc3ccncc3)c(=O)n2CC(=O)NCCc2ccncc2)cc1 [Example E-0040] | 0 | 0 | –
O=C(Cn1c(-c2ccc(-c3ccccc3)cc2)c(Cl)nc(NCCc2ccccc2)c1=O)NCCc1ccncc1 [Example E-0112] | – | – | % Inhibition TF-VIIa (100 µM) [1]: 11%; % Inhibition Factor Xa (100 µM) (Human factor Xa): 1%
O=C(Cn1c(-c2ccc(Cl)cc2)c(Cl)nc(NCCc2cccnc2)c1=O)NCCc1ccncc1 [Example E-0029] | 0 | 0 | –
N=C(N)c1ccc(CNC(=O)Cn2c(Cc3ccccc3)c(Cl)nc(NCCc3ccccc3)c2=O)cc1 [Example 20] | – | – | % Inhibition TF-VIIa (30 µM) ([1]; at 30 µM inhibitor): 41% @ 30; % Inhibition Factor Xa (30 µM) (Human factor Xa; at 30 µM inhibitor): 6% @ 30
N=C(N)c1ccc(CNC(=O)Cn2c(-c3ccc(-c4ccccc4)cc3)c(Cl)nc(NCCc3cccc(Cl)c3)c2=O)cc1 [1471-70] | – | – | % Inhibition TF-VIIa (30 µM) ([1]; at 30 µM inhibitor): 10%; % Inhibition Factor Xa (30 µM) (Human factor Xa; at 30 µM inhibitor): 12%
O=C(Cn1c(-c2cccc(Cl)c2)c(Cl)nc(NCc2ccccc2)c1=O)NCCc1cccnc1 [Example E-0086] | 0 | 4 | –

SMILES | % Inhibition TF-VIIa (100 µM) ([1]; inhibitor at 100 µM) [%] | % Inhibition Factor Xa (100 µM) (Human factor Xa; inhibitor at 100 µM) [%] | other results
COc1ccc(-c2c(Cl)nc(NCCc3cccc(Cl)c3)c(=O)n2CC(=O)NCCc2ccncc2)cc1 [Example E-0035] | 4 | 0 | –
O=C(Cn1c(-c2cccc(Cl)c2)c(Cl)nc(NCCc2cccc(Cl)c2)c1=O)NCCc1ccncc1 [Example E-0091] | 1 | 4 | –
CCCCNc1nc(Cl)c(-c2ccccc2)n(CC(=O)NCc2ccc(C(=N)N)cc2)c1=O [Example 1517-35] | – | – | % Inhibition TF-VIIa (30 µM) ([1]; at 30 µM): 33%; % Inhibition Factor Xa (30 µM) (Human factor Xa; at 30 µM): 0%
Cc1c(Cl)nc(NCc2ccncc2)c(=O)n1CC(=O)NCCc1ccncc1 [Example E-0008] | 0 | 0 | –
COc1ccc(-c2c(Cl)nc(NCCc3cccnc3)c(=O)n2CC(=O)NCc2ccc(C(=N)N)cc2)cc1 [1471-40] | – | – | % Inhibition TF-VIIa (30 µM) ([1]; at 30 µM inhibitor): 40%; % Inhibition Factor Xa (30 µM) (Human factor Xa; at 30 µM inhibitor): 11%
O=C(Cn1c(-c2cccc(Cl)c2)c(Cl)nc(NCCc2cccc(Cl)c2)c1=O)NCCc1ccncc1 [Example E-0079] | 0 | 4 | –
O=C(Cn1c(-c2cccc(Cl)c2)c(Cl)nc(NCCc2ccccc2)c1=O)NCCc1cccnc1 [Example E-0089] | 3 | 4 | –
COc1ccc(-c2c(Cl)nc(NCCc3cccc(Cl)c3)c(=O)n2CC(=O)NCCc2ccncc2)cc1 [Example E-0103] | 2 | 3 | –
O=C(Cn1c(-c2cccc(Cl)c2)c(Cl)nc(NCc2ccccc2)c1=O)NCCc1cccnc1 [Example E-0074] | 0 | 0 | –
O=C(Cn1c(-c2ccc(-c3ccccc3)cc2)c(Cl)nc(NCCc2ccccc2)c1=O)NCCc1ccncc1 [Example E-0050] | – | – | % Inhibition TF-VIIa (100 µM) [1]: 0%; % Inhibition Factor Xa (100 µM) (Human factor Xa): 0%
O=C(Cn1c(-c2cccc(Cl)c2)c(Cl)nc(NCCc2ccc(Cl)cc2)c1=O)NCCc1ccncc1 [Example E-0082] | 4 | 4 | –
O=C(Cn1c(-c2cccc(Cl)c2)c(Cl)nc(NCCc2ccccc2)c1=O)NCCc1ccncc1 [Example E-0088] | 0 | 3 | –
COc1ccc(-c2c(Cl)nc(NCCc3ccncc3)c(=O)n2CC(=O)NCCc2ccncc2)cc1 [Example E-0038] | 0 | 0 | –
O=C(Cn1c(Cc2ccccc2)c(Cl)nc(NCCc2ccncc2)c1=O)NCCc1ccncc1 [Example E-0062] | 0 | 0 | –
O=C(Cn1c(-c2ccc(-c3ccccc3)cc2)c(Cl)nc(NCCN2CCOCC2)c1=O)NCCc1ccncc1 [Example E-0055] | – | – | % Inhibition TF-VIIa (100 µM) [1]: 0%; % Inhibition Factor Xa (100 µM) (Human factor Xa): 0%
CC(=O)Nc1cccc(-c2c(Cl)nc(NC(C)C)c(=O)n2CC(=O)NCCc2ccc(C(=N)N)cc2)c1 [Example 68] | – | – | % Inhibition TF-VIIa (30 µM) ([1]; at 30 µM inhibitor): 32%; % Inhibition Factor Xa (30 µM) (Human factor Xa; at 30 µM inhibitor): 6%
O=C(Cn1c(-c2ccc(-c3ccccc3)cc2)c(Cl)nc(NCc2ccccc2)c1=O)NCCc1ccncc1 [Example E-0109] | – | – | % Inhibition TF-VIIa (100 µM) [1]: 2%; % Inhibition Factor Xa (100 µM) (Human factor Xa): 3%
O=C(Cn1c(-c2ccc(Cl)cc2)c(Cl)nc(NCCc2ccncc2)c1=O)NCCc1ccncc1 [Example E-0022] | 0 | 0 | –
O=C(Cn1c(-c2cccc(Cl)c2)c(Cl)nc(NCCc2ccc(Cl)cc2)c1=O)NCCc1ccncc1 [Example E-0094] | 2 | 2 | –
COc1ccc(-c2c(Cl)nc(NCCc3ccc(Cl)cc3)c(=O)n2CC(=O)NCCc2cccnc2)cc1 [Example E-0107] | 4 | 6 | –
O=C(Cn1c(Cc2ccccc2)c(Cl)nc(NCCc2cccnc2)c1=O)NCCc1ccncc1 [Example E-0061] | 0 | 0 | –
COc1ccc(-c2c(Cl)nc(NCCc3ccccc3)c(=O)n2CC(=O)NCCc2ccncc2)cc1 [Example E-0034] | 0 | 6 | –
O=C(Cn1c(-c2cccc(Cl)c2)c(Cl)nc(NCc2ccccc2)c1=O)NCCc1ccncc1 [Example E-0085] | 0 | 0 | –
O=C(Cn1c(-c2cccc(Cl)c2)c(Cl)nc(NCCc2ccc(Cl)cc2)c1=O)NCCc1cccnc1 [Example E-0083] | 2 | 3 | –
O=C(Cn1c(-c2ccc3c(c2)OCO3)c(Cl)nc(NCCc2ccncc2)c1=O)NCCc1ccncc1 [Example E-0046] | 0 | 0 | –
O=C(Cn1c(-c2ccc(-c3ccccc3)cc2)c(Cl)nc(NCc2ccncc2)c1=O)NCCc1ccncc1 [Example E-0056] | – | – | % Inhibition TF-VIIa (100 µM) [1]: 0%; % Inhibition Factor Xa (100 µM) (Human factor Xa): 0%
